Where no end group is shown, it is not given here.
Experiments:
brain = experiment: In vivo panning of phage peptide display libraries, brain as the selected organ (kidney control); parameters: species or system mice; settings: phage recovered from brain; for (% PHAGE): % of the 73 clones sequenced; for # PHAGE DISPLAYING SAME A.A. SEQUENCE: second and third rounds of in vivo panning, 73 cloned phage sequenced
Procedure: Phage display libraries were constructed using the fuse 5 vector as described by Koivunen et al. (supra, 1995; see, also, Koivunen et al. Meth. Enzymol. 245:346-369 (1994b), which is incorporated herein by reference). Six libraries encoding peptides designated CX5C (SEQ ID NO: 36), CX6C (SEQ ID NO: 37), CX7C (SEQ ID NO: 38), CX9 (SEQ ID NO: 39), X2CX14CX2 (SEQ ID NO: 40) and X2CX18 (SEQ ID NO: 41) were prepared, where "C" indicates cysteine and "XN" indicates the given number of individually selected amino acids. These libraries can display cyclic peptides when at least two cysteine residues are present in the peptide.
Oligonucleotides were constructed such that "C" was encoded by the codon TGT and "XN" was encoded by NNK, where "N" is equal molar mixtures of A, C, G and T, and where "K" is equal molar mixtures of G and T. Thus, the peptide represented by CX5C (SEQ ID NO: 36) can be represented by an oligonucleotide having the sequence TGT(NNK)5TGT (SEQ ID NO: 42). Oligonucleotides were made double stranded by 3 cycles of PCR amplification, purified and ligated to the nucleic acid encoding the gene III protein in the fuse 5 vector such that, upon expression, the peptide is present as a fusion protein at the N-terminus of the gene III protein.
The vectors were transfected by electroporation into MC1061 cells. Bacteria were cultured for 24 hr in the presence of 20 µg/ml tetracycline, then phage were collected from the supernatant by precipitation twice using polyethylene glycol. Each library contained about 5 x 10^9 to 5 x 10^14 transducing units (TU; individual recombinant phage).
(§1) A mixture of phage libraries containing 1 x 10^14 TU was diluted in 200 µl DMEM and injected into the tail vein of anesthetized BALB\c mice (2 month old females; Jackson Laboratories; Bar Harbor ME); Avertin™ (0.015 ml/g) was used as anesthetic (see Pasqualini and Ruoslahti, supra, 1996). After 1-4 minutes, mice were snap frozen in liquid nitrogen. To recover the phage, carcasses were partially thawed at room temperature for 1 hr, organs were collected and weighed, then were ground in 1 ml DMEM-PI (DMEM containing protease inhibitors (PI); phenylmethylsulfonyl fluoride (PMSF; 1 mM), aprotinin (20 µg/ml), leupeptin (1 µg/ml)).
(§2) Organ samples were washed 3 times with ice cold DMEM-PI containing 1% bovine serum albumin (BSA), then directly incubated with 1 ml K91-kan bacteria for 1 hr. Ten ml NZY medium containing […] tetracycline (NZY/tet) was added to the bacterial culture, the mixture was incubated in a 37°C shaker for 1 hr, then 200 µl aliquots were plated in agar plates containing 40 µg/ml tetracycline (tet/agar).
(§3) Individual colonies containing phage recovered from brain or kidney were grown for 16 hr in 5 ml NZY/tet. The bacterial cultures obtained from the individual colonies were pooled and the phage were purified and re-injected into mice as described above for a second round of in vivo panning. A third round of panning also was performed. Phage DNA was purified from individual bacterial colonies obtained from the second and the third round of in vivo panning and the DNA sequences encoding the peptides expressed by selected phage were determined (see Koivunen et al., supra, 1994b).
Three rounds of in vivo panning in mice were performed. Kidney was used as a control organ. Mice were injected with two different mixtures of phage libraries. The first mixture contained libraries encoding CX9 (SEQ ID NO: 39), CX5C (SEQ ID NO: 36), CX6C (SEQ ID NO: 37) and CX7C (SEQ ID NO: 38) peptides (CX5-7/CX9 mixture; SEQ ID NOS: 36-39). The second mixture contained libraries encoding X2CX14CX2 (SEQ ID NO: 40) and X2CX18 (SEQ ID NO: 41) peptides (X2CX18/X2CX14CX2 mixture; SEQ ID NOS: 40 and 41).
The phage library mixtures were administered to mice via tail vein injection. Phage input was […] of the CX5-7/CX9 (SEQ ID NOS: 36-39) mixture or 1 x 10^14 TU of the X2CX18/X2CX14CX2 (SEQ ID NOS: 40 and 41) mixture. […]

kidney = experiment: In vivo panning of phage peptide display libraries, kidney as the selected organ (brain control); parameters: species or system mice; settings: phage recovered from kidney; for (% PHAGE): % of the 48 clones sequenced; for # PHAGE DISPLAYING SAME A.A. SEQUENCE: 48 cloned phage sequenced
Procedure: as §1, §2, §3
The same methodology used to isolate phage expressing brain homing peptides was used to isolate phage expressing peptides that home to kidney. In these experiments, brain was used as the control organ. A mixture of the CX5C (SEQ ID NO: 36) and the CX6C (SEQ ID NO: 37) libraries was administered as described above. Homing of phage to the kidney was obtained and an approximately 3x to 7x enrichment of phage homing to kidney was observed following a second round of in vivo panning.
The amino acid sequences were determined for the inserts in 48 cloned phage that homed to kidney. The peptides expressed by these phage were represented by two predominant sequences, CLPVASC (SEQ ID NO: 21; 46% of the clones sequenced) and CGAREMC (SEQ ID NO: 22; 17% of the clones; see Table 2). In addition, the peptide CKGRSSAC (SEQ ID NO: 23) appeared three times and three other peptides were present twice each.

[1] = system: B16B15b mouse melanoma cells; experiment: In vivo panning in mice bearing an implanted mouse melanoma tumor; parameters: species or system nude mice; settings: phage recovered from B16B15b tumors; 89 cloned phage sequenced
Procedure: Mice bearing a melanoma were produced by implantation of B16B15b mouse melanoma cells, which produce highly vascularized tumors. B16B15b mouse melanoma cells were injected subcutaneously into the mammary fat pad of nude mice (2 months old) and tumors were allowed to grow until the diameter was about 1 cm. In vivo panning was performed as disclosed above. Approximately 1 x 10^12 transducing units of phage expressing the CX5C (SEQ ID NO: 36), CX6C (SEQ ID NO: 37) or […] library were injected, iv, and allowed to circulate for 4 min. Mice then were snap frozen in liquid nitrogen while under anesthesia, tumor tissue and brain (control organ) were removed, and phage were isolated as described above. Three rounds of in vivo panning were performed.
The amino acid sequences were determined for the inserts in 89 cloned phage recovered from the B16B15b tumors. The peptides expressed by these phage were represented by two predominant sequences, CLSGSLSC (SEQ ID NO: 55; 52% of the clones sequenced) and WGTGLC (SEQ ID NO: 52; 25% of the clones; see Table 4).

Substance | (% PHAGE) (brain) | # PHAGE DISPLAYING SAME A.A. SEQUENCE (brain) | (% PHAGE) (kidney) | # PHAGE DISPLAYING SAME A.A. SEQUENCE (kidney) | also measured
CGRSLDAC (displayed on phage) [peptide from phage recovered from brain] | 1.4% | 1 | – | – | –
CANAQSHC (displayed on phage) [peptide from phage recovered from brain] | 1.4% | 1 | – | – | –
CLMGVHC (displayed on phage) [peptide from phage recovered from kidney] | – | – | 2.1% | 1 | –
CKLMGEC (displayed on phage) [peptide from phage recovered from kidney] | – | – | 2.1% | 1 | –
CIEGVLGGC (cysteine pairing not given here; also: displayed on phage) [peptide from phage recovered from mouse B16B15b melanoma] | – | – | – | – | # clones [1]: 2; % of total phage [1]: 2%
CRHWFDVVC (displayed on phage) [peptide from phage recovered from brain] | 1.4% | 1 | – | – | –
CRTGTLFC (displayed on phage) [peptide from phage recovered from brain] | 1.4% | 1 | – | – | –
CTSPGGSC (displayed on phage) [peptide from phage recovered from kidney] | – | – | 4.2% | 2 | –
CLDWGRIC (displayed on phage) [peptide from phage recovered from brain] | 2.8% | 2 | – | – | –
CWARAQGC (displayed on phage) [peptide from phage recovered from kidney] | – | – | 4.2% | 2 | –
CMGRWRLC (displayed on phage) [peptide from phage recovered from kidney] | – | – | 2.1% | 1 | –
CETLPAC (displayed on phage) [peptide from phage recovered from brain] | 1.4% | 1 | – | – | –
CKDWGRIC (displayed on phage) [peptide from phage recovered from brain] | 2.8% | 2 | – | – | –
CRCLNVC (displayed on phage) [peptide from phage recovered from kidney] | – | – | 2.1% | 1 | –
CGNPSYRC (displayed on phage) [peptide from phage recovered from brain] | 1.4% | 1 | – | – | –
CVGECGGC (displayed on phage) [peptide from phage recovered from kidney] | – | – | 2.1% | 1 | –
CKLLSGVC (displayed on phage) [peptide from phage recovered from kidney] | – | – | 2.1% | 1 | –
LNCDYQGTNPATSVSVPCTV (displayed on phage) [peptide from phage recovered from brain] | 1.4% | 1 | – | – | –
CLGRSSVC (displayed on phage) [peptide from phage recovered from kidney] | – | – | 4.2% | 2 | –
CRRFQDC (displayed on phage) [peptide from phage recovered from kidney] | – | – | 2.1% | 1 | –
CTRITESC (displayed on phage) [peptide from phage recovered from brain] | 2.8% | 2 | – | – | –
WGTGLC (also: displayed on phage) [peptide from phage recovered from mouse B16B15b melanoma] | – | – | – | – | # clones [1]: 22; % of total phage [1]: 25%
CSSTMRC (cysteine pairing not given here; also: displayed on phage) [peptide from phage recovered from mouse B16B15b melanoma] | – | – | – | – | # clones [1]: 2; % of total phage [1]: 2%
CVAWLNC (displayed on phage) [peptide from phage recovered from kidney] | – | – | 2.1% | 1 | –
CVLRGGRC (displayed on phage) [peptide from phage recovered from brain] | 6.8% | 5 | – | – | –
CNSRLQLRC (displayed on phage) [peptide from phage recovered from brain] | 5.5% | 4 | – | – | –
CFVGHDLC (displayed on phage) [peptide from phage recovered from kidney] | – | – | 2.1% | 1 | –
CSVANSC (cysteine pairing not given here; also: displayed on phage) [peptide from phage recovered from mouse B16B15b melanoma] | – | – | – | – | # clones [1]: 3; % of total phage [1]: 3%
CGVRLGC (displayed on phage) [peptide from phage recovered from brain] | 4.1% | 3 | – | – | –
YPCGGEAVAGVSSVRTMCSE (displayed on phage) [peptide from phage recovered from brain] | 1.4% | 1 | – | – | –

Reference: patent EP0987275B1, “Molecules that home to a selected organ or tissue in vivo” (LA JOLLA CANCER RESEARCH FOUNDATION, priority 1995, dated 2008)
